Where two headings read alike, the source gives them in different places.
Legend:
Normal Rat [1] = assay type: in vivo, Male Wistar rats; settings: intravenous slow bolus, 1 mg/kg (each compound), n = 3
Normal Rat [2] = assay: Measurement of urine excretion using a nitrosated diuretic compound, intravenous; assay type: in vivo, Male Wistar rats; settings: for Total Urine Volume (ml) at: 0.5 h / Total Urine Volume (ml) at: 1 h / Total Urine Volume (ml) at: 2 h: normal rat, intravenous slow bolus, 3 mg/kg (Example 12: 3 mg/kg equivalent), n = 6

| SMILES | melting point | further results |
| --- | --- | --- |
| C[C@@H](CNC(=O)COC(=O)c1cc(S(N)(=O)=O)c(Cl)cc1NCc1ccco1)O[N+](=O)[O-] | 125 to 138 °C (dec.) | – |
| NS(=O)(=O)c1cc(C(=O)OCC(=O)NCCO[N+](=O)[O-])c(NCc2ccco2)cc1Cl | 135 °C | – |
| CCN(CCO[N+](=O)[O-])C(=O)COC(=O)c1cc(S(N)(=O)=O)c(Cl)cc1NCc1ccco1 | 60 to 62 °C | – |
| NS(=O)(=O)c1cc(C(=O)O)c(NCc2ccco2)cc1Cl [Furosemide, furosemide, reference compound] | – | Total Urine Volume (ml) at: 1 h (Normal Rat [1]; 1 h, mean ± spread): 3.3 ± 1.7 mL; Total Urine Volume (ml) at: 2 h (Normal Rat [1]; 2 h): 3.3 ± 1.7 mL; Total Urine Volume (ml) at: 3 h (Normal Rat [1]; 3 h): 5.0 ± 0.6 mL; Total Urine Volume (ml) at: 0.5 h (Normal Rat [2]): 6.7 ± 1.2 mL; Total Urine Volume (ml) at: 1 h (Normal Rat [2]): 8.8 ± 1.2 mL; Total Urine Volume (ml) at: 2 h (Normal Rat [2]): 11.0 ± 1.3 mL |
| NS(=O)(=O)c1cc(C(=O)OCC(=O)N2CCC(CCO[N+](=O)[O-])CC2)c(NCc2ccco2)cc1Cl | 170 °C | – |
| NS(=O)(=O)c1cc(C(=O)OCC(=O)NC[C@H](CO[N+](=O)[O-])O[N+](=O)[O-])c(NCc2ccco2)cc1Cl [Example 12, (N-((2R)-2,3-Bis(nitrooxy)propyl)carbamoyl)methyl4-chloro-2-((2-furylmethyl)amino)-5-sulfamoylbenzoate] | 143 to 153 °C (dec.) | Total Urine Volume (ml) at: 0.5 h (Normal Rat [2]): 4.2 ± 0.4 mL; Total Urine Volume (ml) at: 1 h (Normal Rat [2]): 5.3 ± 0.5 mL; Total Urine Volume (ml) at: 2 h (Normal Rat [2]): 6.2 ± 0.5 mL; Diuresis in the rat (Normal Rat [2]; rat, intravenous, 3 mg/kg equivalent): elicits diuresis |
| CN(CCO[N+](=O)[O-])C(=O)COC(=O)c1cc(S(N)(=O)=O)c(Cl)cc1NCc1ccco1 | 70 to 72 °C | – |

More lines, main results first:

| melting point | SMILES | further results |
| --- | --- | --- |
| 64 to 66 °C | NS(=O)(=O)c1cc(C(=O)OCC(=O)N2CCC[C@@H]2CO[N+](=O)[O-])c(NCc2ccco2)cc1Cl | – |
| 51 to 61 °C | NS(=O)(=O)c1cc(C(=O)NCCOC(=O)[C@@H]2CCCN2[15N]=O)c(NCc2ccco2)cc1Cl | – |
| 79 to 81 °C | NS(=O)(=O)c1cc(C(=O)OC[C@H]2CCCN2N=O)c(NCc2ccco2)cc1Cl | – |
| 115 to 118 °C | NS(=O)(=O)c1cc(C(=O)OCC(=O)N[C@@H](CCO[N+](=O)[O-])CO[N+](=O)[O-])c(NCc2ccco2)cc1Cl | – |
| 115 to 117 °C | NS(=O)(=O)c1cc(C(=O)OCC(=O)N2CCC(CO[N+](=O)[O-])CC2)c(NCc2ccco2)cc1Cl | – |

Reference: patent publication US7282519B2 (priority 2003, dated 2007)
